Laboratory results from patent US20060051358A1, “Immune response assessment method” (Baylor Research Institute, priority 2004, published 2006).

Columns and labels:
Assay type in all cases: cell-based, human
[1] = system: PBMCs obtained from melanoma patients; experiment: EPIMAX: PBMC culture with peptides or peptide clusters, multiplex bead cytokine assay (Luminex)
[2] = system: T cells in melanoma patient PBMCs; experiment: Intracellular cytokine detection assay (flow cytometry); conditions: 8 hours with anti CD28/CD49d mAbs and monensin
Description: FIG. 12A is a graph that depicts the immune response of a melanoma patient as evaluated according the present invention. PBMCs obtained before DC vaccination and post 8 DC vaccinations from a melanoma patient (same as FIG. 10) were stimulated with single 15-mer MART-1 peptides or diluent. The levels of IL-1a and IP-10 in the culture supernatants at 48 h of culture are shown. […] To examine this hypothesis, we used a different well-established methodology, intracellular cytokine detection assay. The same PBMCs were stimulated for 8 h with MART-1 15-mer single peptides in the presence of anti-CD28/CD49d mAb and monensin. After permeabilization of the cell membrane, the cells were stained with anti-IFN-γ mAb and the IFN-γ+ populations were analyzed with a flowcytometer (FIG. 12B).
The same patient's PBMCs were stimulated for 8 hours with MART-1 15-mer peptide#10 in the presence of antiCD28/CD49d mAb and monensin. The production of IL-2 were analyzed by staining with specific mAbs.
The same patient's PBMCs were stimulated for 8 hours with MART-1 15-mer peptide#11 in the presence of antiCD28/CD49d mAb and monensin. The production of IL-5 were analyzed by staining with specific mAbs.
(§1) FIGS. 29A-D are graphs that depict the immune response of a melanoma patients as evaluated according the present invention. PBMCs obtained from a melanoma patient were stimulated with clusters of peptides or individual peptides encoding NY-ESO1. IL-10 levels in culture supernatant at 48 hours of culture are shown (FIG. 29A). […] To explore the origin of IL-10 production, the PBMCs were stimulated with peptide#39 in the presence of anti CD28/CD49d mAbs and monensin for 8 hours, and stained with IL-10 specific mAb. […] Next, to evaluate whether this IL-10 producing T cells had regulatory properties, PBMCs stimulated with peptide #39 or irrelevant 15-mer peptide were added in transwells to a “third party” MLR to test suppression of T cell expansion by the release of soluble mediators. The MLR used CFSE-labeled CD4^+T cells and allogeneic mature DCs, both from healthy volunteers, in order to avoid the effect of peptide-specific T cell response.

[3] = system: CFSE-labeled CD4+ T cells and allogeneic mature DCs; experiment: Third party MLR suppression assay in transwells; conditions: patient's PBMC stimulated with peptide added in transwells
Description: as §1

[4] = system: CD4+ / CD8+ T cells in melanoma patient PBMCs; experiment: CFSE dilution T cell proliferation assay, melanoma patient PBMCs; conditions: epitopes for Th0, Th1, Th2 cells; patient 094-012, Post
[5] = system: CD4+ / CD8+ T cells in melanoma patient PBMCs; experiment: as above; conditions: epitopes for Th0, Th1, Th2 cells
Source text: FIG. 13 depicts the immune response of a melanoma patient as evaluated according the present invention. CFSE (5,6-carboxyfluorescein diacetate succinimidyl ester) is a tracer dye that permits to identify the number of cell division with a flowcytometer. As EPIMAX is a non-destructive assay, we combined with EPIMAX and CFSE technology to determine the proliferative capacity of antigen-specific T cells. […] PBMCs obtained from the same melanoma patient (same as FIG. 10) were first stained with 1 uM of CFSE, and stimulated with either clusters of overlapping peptides or individual peptides encoding MART-1. On day 8 of culture, the cells were stained with CD8-PE, CD3-PerCP, and CD4-APC, and analyzed T cell proliferation in response to peptide stimulation.
(§2) FIG. 14 depicts the immune response of a melanoma patient as evaluated according the present invention. PBMCs obtained from the same melanoma patient (same as FIG. 10) were first stained with 1 μM of CFSE, and stimulated with individual peptides encoding MART-1 in triplicates. On day 8 of culture, the cells were stained with CD8-PE, CD3-PerCP, and CD4-APC, and analyzed T cell proliferation in response to peptide stimulation.
as §2, with “FIGS. 21A-B” for “FIG. 14”, “19)” for “10)”, “stimulation. […] FIG. 21B depicts the CFSE-diluted CD4+ T cell populations in response to each MART-1 15-mer peptide within the CD4^+ T cell population.” for “stimulation.”
FIGS. 22 A-C depicts the immune response of a melanoma patient as evaluated according the present invention. PBMCs obtained from a HLA-A2^neg melanoma patient who received DC vaccinations were first stained with 1 μM of CFSE, and stimulated with clusters of peptides encoding NY-ESO1. On day 8 of culture, the cells were stained with CD8-PE, CD3-PerCP, and CD4-APC, and analyzed T cell proliferation in response to peptide stimulation was analyzed based on CFSE dilution with a flowcytometer. […] FIG. 22B depicts the IL-2 levels in the culture supernatant at 48 hours of culture. […] To identify the epitope for CD4+ T cells, CFSE-stained PBMCs were stimulated with individual peptides within NY-ESO1 cluster#8. The proliferating CD4+ T cells were analyzed based on CFSE dilution with a flowcytometer on day 8.

[6] = epitopes for Th0, Th1, Th2 cells, patient 094-012, Post

**Q.** Which results are given for “NY-ESO1 p39: 15-mer of NY-ESO1 library, residues 153-167 (LQQLSLLMWITQCFL; UniProt P78358 153-167, looked up, fragment)”?
**A.** Type of response ([1]; epitopes for CD8+ T cells, patient 094-007, Post): 1; Type of response ([1]; epitopes for CD8+ T cells, patient 094-007, Pre): 1; CD4+ T cells producing IL-10 [2]: about 0.11%; proliferation in third party MLR [3]: significantly suppressed proliferation in the MLR

**Q.** “gp100 p78: 15-mer of gp100 library, residues 309-323 (TTDGHRPTAEAPNTT; UniProt P40967 309-323, looked up, fragment)” was tested. Which Type of response [1, 6] did it give?
**A.** 2

**Q.** What about the proliferation [4] of the same substance?
**A.** Yes

**Q.** What does the source list for “gp100 p152: 15-mer of gp100 library, residues 605-619 (VLMAVVLASLIYRRR; UniProt P40967 605-619, looked up, fragment)”?
**A.** Type of response ([1]; epitopes for Th0, Th1, Th2 cells, patient 094-009, Post): 0; Type of response [1, 6]: 2; Type of response ([1]; epitopes for Th0, Th1, Th2 cells, patient 094-015, Post): 0; CD4+ T cell epitope identification (cytokines at 48 h, CFSE dilution day 8) ([1]; two melanoma patients, peptides of TRP-1 cluster#25 or gp100 cluster#15): are epitopes for CD4^+ T cells; proliferation ([5]; patient 094-009, Post): Yes; proliferation ([5]; patient 094-015, Post): Yes; proliferation [4]: Yes
